Measurements taken from ChEMBL document CHEMBL1134583, “Synthesis and biological activity of D- and L-chiro-inositol 2,3,4,5-tetrakisphosphate: design of a novel and potent inhibitor of Ins(3,4,5,6)P4 1-kinase/Ins(1,3,4)P3 5/6-kinase” (J Med Chem, 2001).
pIC50: −log10 of the molar value. Where “and” joins values, the source holds several entries; their conditions need not be identical. Equal values may be shown once.

assay: Inhibition against Inositol (3,4,5,6)P4 1-kinase from bovine aorta; parameters: species or system Bos taurus

pIC50	Compound
6.77 and 6.70	O=P(O)(O)OC1C(OP(=O)(O)O)[C@H](O)[C@H](O)C(OP(=O)(O)O)[C@@H]1O (stereo not given in full)
6.15	O=P(O)(O)OC1C(OP(=O)(O)O)[C@H](O)[C@H](OP(=O)(O)O)C(O)[C@@H]1O (stereo not given in full)
< 4.52	O=P(O)(O)OC1[C@H](O)C(O)C(OP(=O)(O)O)[C@H](O)[C@@H]1OP(=O)(O)O (stereo not given in full)
4.77	O=P(O)(O)OC1C(O)[C@H](O)[C@H](OP(=O)(O)O)C(OP(=O)(O)O)[C@@H]1O (stereo not given in full)
5.38	O=P(O)(O)OC1C(OP(=O)(O)O)[C@H](OP(=O)(O)O)[C@H](O)C(O)[C@@H]1O (stereo not given in full)
4.84	O=P(O)(O)OC1C(OP(=O)(O)O)[C@@H](O)[C@H](OP(=O)(O)O)C(OP(=O)(O)O)[C@@H]1O (stereo not given in full)
< 4.52	O=P(O)(O)O[C@@H]1[C@@H](OP(=O)(O)O)[C@@H](OP(=O)(O)O)[C@H](O)[C@@H](O)[C@@H]1OP(=O)(O)O
< 4.52	O=P(O)(O)O[C@@H]1[C@@H](OP(=O)(O)O)[C@@H](OP(=O)(O)O)[C@@H](O)[C@@H](O)[C@@H]1OP(=O)(O)O
5.82	O=P(O)(O)O[C@H]1[C@H](OP(=O)(O)O)[C@@H](OP(=O)(O)O)[C@@H](O)[C@H](O)[C@H]1OP(=O)(O)O (stereo in doubt; 3)
5.80	O=P(O)(O)O[C@H]1[C@H](OP(=O)(O)O)[C@@H](OP(=O)(O)O)[C@@H](O)[C@H](O)[C@H]1OP(=O)(O)O (stereo in doubt; 12)
4.78	O=P(O)(O)O[C@H]1[C@H](O)[C@@H](OP(=O)(O)O)[C@H](OP(=O)(O)O)[C@@H](OP(=O)(O)O)[C@H]1O (stereo in doubt; 13)
5.05	O=P(O)(O)O[C@H]1[C@H](O)[C@@H](OP(=O)(O)O)[C@H](OP(=O)(O)O)[C@@H](OP(=O)(O)O)[C@H]1O (stereo in doubt; 14)
4.32	O=P(O)(O)O[C@@H]1[C@H](O)[C@H](O)[C@@H](OP(=O)(O)O)[C@H](OP(=O)(O)O)[C@H]1O [INS(1,4,5)P3]
4.82	O=P(O)(O)OC1C(OP(=O)(O)O)[C@H](OP(=O)(O)O)[C@H](OP(=O)(O)O)C(OP(=O)(O)O)[C@@H]1O (stereo not given in full) [IONOSITOL (1,3,4,5,6) P5]

assay: Inhibition of Inositol (3,4,5,6)P4 1-kinase from bovine aorta; parameters: species or system Bos taurus

pIC50	Compound
6.55	O=P(O)(O)OC1C(OP(=O)(O)O)[C@H](O)[C@H](O)C(OP(=O)(O)O)[C@@H]1O (stereo not given in full)
